# Experimental data reported in patent publication US9340590B2 (priority 2011, dated 2016).
# Positions of bridges follow the written chain, without caps; N, C: chain ends. Non-standard residues stand in square brackets, D forms with d. Residues, ends and D or L forms follow the SMILES beside them. Arg(Me2s) = CN=C(NC)NCCC[C@H](N)C(=O)O; Arg(Me) = CNC(=N)NCCC[C@H](N)C(=O)O; hArg = N=C(N)NCCCC[C@H](N)C(=O)O; hCit = NC(=O)NCCCC[C@H](N)C(=O)O; Cit = NC(=O)NCCC[C@H](N)C(=O)O; Orn = NCCC[C@H](N)C(=O)O; Dap = NC[C@H](N)C(=O)O
# Columns and labels:
# Assay in all cases: cell-based
# hNav1.3 = hNav1.3 (Homo sapiens, UniProt Q9NY46); settings: IonWorks Quattro, use-dependent block, hNav1.3; read-out: IWQ Use Nav1.3
# hNav1.7 = hNav1.7 (Homo sapiens, UniProt Q15858); format: cell-based; settings: IonWorks Quattro, use-dependent block, hNav1.7; read-out: IWQ Use Nav1.7
# Chain of hNav1.7 (Q15858 whole entry, looked up): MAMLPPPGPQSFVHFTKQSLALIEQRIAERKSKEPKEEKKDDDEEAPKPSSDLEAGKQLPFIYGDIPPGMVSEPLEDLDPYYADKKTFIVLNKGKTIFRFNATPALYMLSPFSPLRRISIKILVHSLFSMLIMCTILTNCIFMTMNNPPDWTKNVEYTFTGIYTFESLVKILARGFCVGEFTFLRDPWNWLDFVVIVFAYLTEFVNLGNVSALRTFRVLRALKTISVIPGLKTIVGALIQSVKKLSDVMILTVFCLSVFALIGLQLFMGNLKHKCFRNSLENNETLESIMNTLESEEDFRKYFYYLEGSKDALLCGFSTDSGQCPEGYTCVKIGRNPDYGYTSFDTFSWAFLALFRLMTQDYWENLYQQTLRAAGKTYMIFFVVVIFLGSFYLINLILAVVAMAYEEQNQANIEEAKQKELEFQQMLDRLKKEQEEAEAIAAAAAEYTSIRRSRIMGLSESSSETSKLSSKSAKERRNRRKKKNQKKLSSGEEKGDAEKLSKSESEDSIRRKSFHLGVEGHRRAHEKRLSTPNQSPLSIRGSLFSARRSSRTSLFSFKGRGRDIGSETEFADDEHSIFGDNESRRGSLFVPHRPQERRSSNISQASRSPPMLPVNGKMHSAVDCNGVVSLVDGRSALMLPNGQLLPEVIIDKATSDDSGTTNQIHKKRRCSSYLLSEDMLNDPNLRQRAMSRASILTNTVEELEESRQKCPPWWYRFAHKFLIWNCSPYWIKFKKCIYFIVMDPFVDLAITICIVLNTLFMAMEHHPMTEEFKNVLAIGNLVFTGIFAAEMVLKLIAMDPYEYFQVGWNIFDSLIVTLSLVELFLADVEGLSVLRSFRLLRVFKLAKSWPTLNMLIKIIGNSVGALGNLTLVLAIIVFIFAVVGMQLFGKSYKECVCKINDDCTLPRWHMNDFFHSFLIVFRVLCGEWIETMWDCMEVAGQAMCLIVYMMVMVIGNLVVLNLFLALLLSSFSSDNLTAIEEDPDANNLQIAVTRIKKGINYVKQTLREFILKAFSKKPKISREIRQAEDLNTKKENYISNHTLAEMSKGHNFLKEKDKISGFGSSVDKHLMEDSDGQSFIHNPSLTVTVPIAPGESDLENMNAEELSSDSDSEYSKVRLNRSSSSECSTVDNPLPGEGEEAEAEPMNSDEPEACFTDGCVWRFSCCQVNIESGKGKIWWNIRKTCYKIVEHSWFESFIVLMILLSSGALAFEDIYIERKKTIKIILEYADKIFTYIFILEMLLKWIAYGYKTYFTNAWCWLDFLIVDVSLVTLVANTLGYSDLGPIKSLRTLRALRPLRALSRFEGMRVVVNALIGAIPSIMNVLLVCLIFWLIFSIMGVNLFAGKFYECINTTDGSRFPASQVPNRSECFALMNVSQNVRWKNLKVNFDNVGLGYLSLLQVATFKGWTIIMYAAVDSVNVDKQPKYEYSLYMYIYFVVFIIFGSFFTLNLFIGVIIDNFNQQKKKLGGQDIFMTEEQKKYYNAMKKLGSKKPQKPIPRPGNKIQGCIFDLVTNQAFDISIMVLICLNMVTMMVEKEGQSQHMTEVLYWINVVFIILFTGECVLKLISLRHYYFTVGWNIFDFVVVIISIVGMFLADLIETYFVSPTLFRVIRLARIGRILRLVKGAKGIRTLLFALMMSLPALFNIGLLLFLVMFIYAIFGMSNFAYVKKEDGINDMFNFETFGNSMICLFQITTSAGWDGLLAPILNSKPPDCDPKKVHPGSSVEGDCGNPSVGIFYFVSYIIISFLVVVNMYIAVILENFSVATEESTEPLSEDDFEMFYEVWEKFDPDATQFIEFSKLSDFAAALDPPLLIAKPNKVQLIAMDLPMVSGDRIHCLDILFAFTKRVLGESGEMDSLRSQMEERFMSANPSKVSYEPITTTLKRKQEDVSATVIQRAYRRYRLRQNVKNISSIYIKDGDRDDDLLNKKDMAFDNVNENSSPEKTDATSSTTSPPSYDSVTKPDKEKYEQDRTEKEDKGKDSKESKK
# hNav1.5 = hNav1.5 (Homo sapiens, UniProt Q14524); settings: IonWorks Quattro, use-dependent block, hNav1.5; read-out: IWQ Use Nav1.5
# Chain of hNav1.5 (Q14524 whole entry, looked up): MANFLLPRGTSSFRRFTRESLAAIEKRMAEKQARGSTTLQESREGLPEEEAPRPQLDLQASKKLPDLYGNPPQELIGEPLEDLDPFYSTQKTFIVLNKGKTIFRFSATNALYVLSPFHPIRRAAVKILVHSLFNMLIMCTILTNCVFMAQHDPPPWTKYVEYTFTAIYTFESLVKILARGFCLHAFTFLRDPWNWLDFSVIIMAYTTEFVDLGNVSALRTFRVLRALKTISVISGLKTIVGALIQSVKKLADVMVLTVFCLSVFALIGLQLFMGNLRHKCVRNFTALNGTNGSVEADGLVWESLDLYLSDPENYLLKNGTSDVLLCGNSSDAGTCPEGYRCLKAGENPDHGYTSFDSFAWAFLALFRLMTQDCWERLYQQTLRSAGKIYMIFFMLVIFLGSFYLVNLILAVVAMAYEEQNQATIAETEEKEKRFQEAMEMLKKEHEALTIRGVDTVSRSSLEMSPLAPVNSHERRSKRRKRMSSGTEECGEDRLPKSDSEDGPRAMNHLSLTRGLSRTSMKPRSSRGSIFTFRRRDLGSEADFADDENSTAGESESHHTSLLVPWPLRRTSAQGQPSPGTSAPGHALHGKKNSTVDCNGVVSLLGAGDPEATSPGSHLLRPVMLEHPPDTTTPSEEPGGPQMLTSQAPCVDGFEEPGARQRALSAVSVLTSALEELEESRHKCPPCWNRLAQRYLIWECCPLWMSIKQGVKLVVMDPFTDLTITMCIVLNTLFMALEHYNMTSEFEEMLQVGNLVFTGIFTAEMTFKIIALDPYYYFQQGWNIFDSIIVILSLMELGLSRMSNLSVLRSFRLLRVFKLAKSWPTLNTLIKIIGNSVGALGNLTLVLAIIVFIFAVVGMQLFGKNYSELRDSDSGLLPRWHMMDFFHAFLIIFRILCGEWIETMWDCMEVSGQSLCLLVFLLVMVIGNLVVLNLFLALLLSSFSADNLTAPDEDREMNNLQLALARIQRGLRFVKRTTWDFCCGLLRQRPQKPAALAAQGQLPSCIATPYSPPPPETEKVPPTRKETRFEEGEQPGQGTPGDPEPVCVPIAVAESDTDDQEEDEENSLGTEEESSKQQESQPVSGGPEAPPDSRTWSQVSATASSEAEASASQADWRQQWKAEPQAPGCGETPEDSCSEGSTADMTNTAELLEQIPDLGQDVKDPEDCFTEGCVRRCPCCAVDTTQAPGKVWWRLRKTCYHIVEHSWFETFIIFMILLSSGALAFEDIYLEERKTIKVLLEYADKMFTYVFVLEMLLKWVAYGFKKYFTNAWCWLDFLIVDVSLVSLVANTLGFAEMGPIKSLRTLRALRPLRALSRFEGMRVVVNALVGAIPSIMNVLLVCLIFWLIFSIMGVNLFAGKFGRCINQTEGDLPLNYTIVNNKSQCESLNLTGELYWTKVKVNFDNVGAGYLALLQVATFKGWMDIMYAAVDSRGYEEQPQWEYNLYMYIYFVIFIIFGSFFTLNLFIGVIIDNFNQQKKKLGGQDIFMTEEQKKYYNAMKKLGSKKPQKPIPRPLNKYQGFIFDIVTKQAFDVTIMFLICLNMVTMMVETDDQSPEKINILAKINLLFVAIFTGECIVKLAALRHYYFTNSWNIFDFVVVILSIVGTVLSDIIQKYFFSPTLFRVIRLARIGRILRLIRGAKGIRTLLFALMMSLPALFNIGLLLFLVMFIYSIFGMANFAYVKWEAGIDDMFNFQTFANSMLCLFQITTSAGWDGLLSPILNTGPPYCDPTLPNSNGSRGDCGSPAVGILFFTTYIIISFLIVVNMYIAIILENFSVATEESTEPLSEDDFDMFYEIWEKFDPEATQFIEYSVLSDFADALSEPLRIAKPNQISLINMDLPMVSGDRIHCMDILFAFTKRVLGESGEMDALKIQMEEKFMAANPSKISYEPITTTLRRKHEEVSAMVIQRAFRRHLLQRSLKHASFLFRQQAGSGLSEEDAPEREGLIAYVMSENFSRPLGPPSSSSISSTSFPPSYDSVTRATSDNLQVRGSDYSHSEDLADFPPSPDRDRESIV
Structure (SMILES),IC50 (hNav1.3),IC50 (hNav1.7),IC50 (hNav1.5)
"CC[C@H](C)[C@@H]1NC(=O)[C@@H]2CSSC[C@@H]3NC(=O)[C@H](C(C)C)NC(=O)[C@H](CC(C)C)NC(=O)[C@H](CC(N)=O)NC(=O)[C@@H]4CCCN4C(=O)[C@H](CCCNC(=N)N)NC(=O)[C@H](CSSC[C@H](NC(=O)[C@@H](N)CC(=O)O)C(=O)N[C@@H](CC(C)C)C(=O)NCC(=O)N[C@@H](C)C(=O)N[C@@H](CCSC)C(=O)N[C@@H](CCCNC(=N)N)C(=O)N[C@@H](CCCCN)C(=O)N2)NC(=O)[C@H](CSSC[C@@H](C(=O)N[C@@H](CCCCN)C(=O)N[C@@H](Cc2ccc(O)cc2)C(=O)N[C@H](C(=O)N[C@@H](Cc2ccccc2)C(N)=O)C(C)C)NC(=O)[C@H](Cc2c[nH]c4ccccc24)NC(=O)[C@H](CCCCNC(C)=O)NC(=O)[C@H](Cc2c[nH]cn2)NC(=O)[C@H]([C@@H](C)O)NC(=O)[C@H](CCCNC(=N)N)NC(=O)[C@H](CO)NC3=O)NC(=O)[C@H](CCCCN)NC(=O)[C@H](CC(=O)O)NC(=O)[C@H](CC(N)=O)NC(=O)[C@H](CC(=O)O)NC(=O)[C@@H]2CCCN2C1=O [compound 742] (H-DCLGAMRKCIPDNDKCCRPNLVCSRTHK(Ac)WCKYVF-NH2; disulfide 2-17, 9-23, 16-30)",2500 nM,1100 nM,22700 nM
"CC[C@H](C)[C@@H]1NC(=O)[C@@H]2CSSC[C@@H]3NC(=O)[C@H](C(C)C)NC(=O)[C@H](CC(C)C)NC(=O)[C@H](CC(N)=O)NC(=O)[C@@H]4CCCN4C(=O)[C@H](CCCNC(=N)N)NC(=O)[C@H](CSSC[C@H](NC(=O)[C@@H](N)CC(=O)O)C(=O)N[C@@H](CC(C)C)C(=O)NCC(=O)N[C@@H](C)C(=O)N[C@@H](CCSC)C(=O)N[C@@H](CCCNC(=N)N)C(=O)N[C@@H](CCCCN)C(=O)N2)NC(=O)[C@H](CSSC[C@@H](C(=O)N[C@@H](CCCCN)C(=O)N[C@@H](Cc2ccc(O)cc2)C(=O)N[C@H](C(=O)N[C@@H](Cc2ccccc2)C(N)=O)C(C)C)NC(=O)[C@H](Cc2c[nH]c4ccccc24)NC(=O)[C@H](CCCNC(=NC)NC)NC(=O)[C@H](Cc2c[nH]cn2)NC(=O)[C@H]([C@@H](C)O)NC(=O)[C@H](CCCNC(=N)N)NC(=O)[C@H](CO)NC3=O)NC(=O)[C@H](CCCCN)NC(=O)[C@H](CC(=O)O)NC(=O)[C@H](CC(N)=O)NC(=O)[C@H](CC(=O)O)NC(=O)[C@@H]2CCCN2C1=O [compound 743] (H-DCLGAMRKCIPDNDKCCRPNLVCSRTH[Arg(Me2s)]WCKYVF-NH2; disulfide 2-17, 9-23, 16-30)",1100 nM,220 nM,26500 nM
"CC[C@H](C)[C@@H]1NC(=O)[C@@H]2CSSC[C@@H]3NC(=O)[C@H](C(C)C)NC(=O)[C@H](CC(C)C)NC(=O)[C@H](CC(N)=O)NC(=O)[C@@H]4CCCN4C(=O)[C@H](CCCNC(=N)N)NC(=O)[C@H](CSSC[C@H](NC(=O)[C@@H](N)CC(=O)O)C(=O)N[C@@H](CC(C)C)C(=O)NCC(=O)N[C@@H](C)C(=O)N[C@@H](CCSC)C(=O)N[C@@H](CCCNC(=N)N)C(=O)N[C@@H](CCCCN)C(=O)N2)NC(=O)[C@H](CSSC[C@@H](C(=O)N[C@@H](CCCCN)C(=O)N[C@@H](Cc2ccc(O)cc2)C(=O)N[C@H](C(=O)N[C@@H](Cc2ccccc2)C(N)=O)C(C)C)NC(=O)[C@H](Cc2c[nH]c4ccccc24)NC(=O)[C@H](CCCCNC(=N)N)NC(=O)[C@H](Cc2c[nH]cn2)NC(=O)[C@H]([C@@H](C)O)NC(=O)[C@H](CCCNC(=N)N)NC(=O)[C@H](CO)NC3=O)NC(=O)[C@H](CCCCN)NC(=O)[C@H](CC(=O)O)NC(=O)[C@H](CC(N)=O)NC(=O)[C@H](CC(=O)O)NC(=O)[C@@H]2CCCN2C1=O [compound 744] (H-DCLGAMRKCIPDNDKCCRPNLVCSRTH[hArg]WCKYVF-NH2; disulfide 2-17, 9-23, 16-30)",820 nM,470 nM,39700 nM
"CC[C@H](C)[C@@H]1NC(=O)[C@@H]2CSSC[C@@H]3NC(=O)[C@H](C(C)C)NC(=O)[C@H](CC(C)C)NC(=O)[C@H](CC(N)=O)NC(=O)[C@@H]4CCCN4C(=O)[C@H](CCCNC(=N)N)NC(=O)[C@H](CSSC[C@H](NC(=O)[C@@H](N)CC(=O)O)C(=O)N[C@@H](CC(C)C)C(=O)NCC(=O)N[C@@H](C)C(=O)N[C@@H](CCSC)C(=O)N[C@@H](CCCNC(=N)N)C(=O)N[C@@H](CCCCN)C(=O)N2)NC(=O)[C@H](CSSC[C@@H](C(=O)N[C@@H](CCCCN)C(=O)N[C@@H](Cc2ccc(O)cc2)C(=O)N[C@H](C(=O)N[C@@H](Cc2ccccc2)C(N)=O)C(C)C)NC(=O)[C@H](Cc2c[nH]c4ccccc24)NC(=O)[C@H](CCCNC(=N)NC)NC(=O)[C@H](Cc2c[nH]cn2)NC(=O)[C@H]([C@@H](C)O)NC(=O)[C@H](CCCNC(=N)N)NC(=O)[C@H](CO)NC3=O)NC(=O)[C@H](CCCCN)NC(=O)[C@H](CC(=O)O)NC(=O)[C@H](CC(N)=O)NC(=O)[C@H](CC(=O)O)NC(=O)[C@@H]2CCCN2C1=O [compound 745] (H-DCLGAMRKCIPDNDKCCRPNLVCSRTH[Arg(Me)]WCKYVF-NH2; disulfide 2-17, 9-23, 16-30)",500 nM,250 nM,40000 nM
"CC[C@H](C)[C@@H]1NC(=O)[C@@H]2CSSC[C@@H]3NC(=O)[C@H](C(C)C)NC(=O)[C@H](CC(C)C)NC(=O)[C@H](CC(N)=O)NC(=O)[C@@H]4CCCN4C(=O)[C@H](CCCNC(=N)N)NC(=O)[C@H](CSSC[C@H](NC(=O)[C@@H](N)CC(=O)O)C(=O)N[C@@H](CC(C)C)C(=O)NCC(=O)N[C@@H](C)C(=O)N[C@@H](CCSC)C(=O)N[C@@H](CCCNC(=N)N)C(=O)N[C@@H](CCCCN)C(=O)N2)NC(=O)[C@H](CSSC[C@@H](C(=O)N[C@@H](CCCCN)C(=O)N[C@@H](Cc2ccc(O)cc2)C(=O)N[C@H](C(=O)N[C@@H](Cc2ccccc2)C(N)=O)C(C)C)NC(=O)[C@H](Cc2c[nH]c4ccccc24)NC(=O)[C@H](CCCN)NC(=O)[C@H](Cc2c[nH]cn2)NC(=O)[C@H]([C@@H](C)O)NC(=O)[C@H](CCCNC(=N)N)NC(=O)[C@H](CO)NC3=O)NC(=O)[C@H](CCCCN)NC(=O)[C@H](CC(=O)O)NC(=O)[C@H](CC(N)=O)NC(=O)[C@H](CC(=O)O)NC(=O)[C@@H]2CCCN2C1=O [compound 746] (H-DCLGAMRKCIPDNDKCCRPNLVCSRTH[Orn]WCKYVF-NH2; disulfide 2-17, 9-23, 16-30)",760 nM,290 nM,20700 nM
"CC[C@H](C)[C@@H]1NC(=O)[C@@H]2CSSC[C@@H]3NC(=O)[C@H](C(C)C)NC(=O)[C@H](CC(C)C)NC(=O)[C@H](CC(N)=O)NC(=O)[C@@H]4CCCN4C(=O)[C@H](CCCNC(=N)N)NC(=O)[C@H](CSSC[C@H](NC(=O)[C@@H](N)CC(=O)O)C(=O)N[C@@H](CC(C)C)C(=O)NCC(=O)N[C@@H](C)C(=O)N[C@@H](CCSC)C(=O)N[C@@H](CCCNC(=N)N)C(=O)N[C@@H](CCCCN)C(=O)N2)NC(=O)[C@H](CSSC[C@@H](C(=O)N[C@@H](CCCCN)C(=O)N[C@@H](Cc2ccc(O)cc2)C(=O)N[C@H](C(=O)N[C@@H](Cc2ccccc2)C(N)=O)C(C)C)NC(=O)[C@H](Cc2c[nH]c4ccccc24)NC(=O)[C@H](CN)NC(=O)[C@H](Cc2c[nH]cn2)NC(=O)[C@H]([C@@H](C)O)NC(=O)[C@H](CCCNC(=N)N)NC(=O)[C@H](CO)NC3=O)NC(=O)[C@H](CCCCN)NC(=O)[C@H](CC(=O)O)NC(=O)[C@H](CC(N)=O)NC(=O)[C@H](CC(=O)O)NC(=O)[C@@H]2CCCN2C1=O [compound 747] (H-DCLGAMRKCIPDNDKCCRPNLVCSRTH[Dap]WCKYVF-NH2; disulfide 2-17, 9-23, 16-30)",780 nM,370 nM,38300 nM
"CC[C@H](C)[C@@H]1NC(=O)[C@@H]2CSSC[C@@H]3NC(=O)[C@H](C(C)C)NC(=O)[C@H](CC(C)C)NC(=O)[C@H](CC(N)=O)NC(=O)[C@@H]4CCCN4C(=O)[C@H](CCCNC(=N)N)NC(=O)[C@H](CSSC[C@H](NC(=O)[C@@H](N)CC(=O)O)C(=O)N[C@@H](CC(C)C)C(=O)NCC(=O)N[C@@H](C)C(=O)N[C@@H](CCSC)C(=O)N[C@@H](CCCNC(=N)N)C(=O)N[C@@H](CCCCN)C(=O)N2)NC(=O)[C@H](CSSC[C@@H](C(=O)N[C@@H](CCCCN)C(=O)N[C@@H](Cc2ccc(O)cc2)C(=O)N[C@H](C(=O)N[C@@H](Cc2ccccc2)C(N)=O)C(C)C)NC(=O)[C@H](Cc2c[nH]c4ccccc24)NC(=O)[C@H](CCCNC(N)=O)NC(=O)[C@H](Cc2c[nH]cn2)NC(=O)[C@H]([C@@H](C)O)NC(=O)[C@H](CCCNC(=N)N)NC(=O)[C@H](CO)NC3=O)NC(=O)[C@H](CCCCN)NC(=O)[C@H](CC(=O)O)NC(=O)[C@H](CC(N)=O)NC(=O)[C@H](CC(=O)O)NC(=O)[C@@H]2CCCN2C1=O [compound 748] (H-DCLGAMRKCIPDNDKCCRPNLVCSRTH[Cit]WCKYVF-NH2; disulfide 2-17, 9-23, 16-30)",2700 nM,870 nM,24200 nM
"CC[C@H](C)[C@@H]1NC(=O)[C@@H]2CSSC[C@@H]3NC(=O)[C@H](C(C)C)NC(=O)[C@H](CC(C)C)NC(=O)[C@H](CC(N)=O)NC(=O)[C@@H]4CCCN4C(=O)[C@H](CCCNC(=N)N)NC(=O)[C@H](CSSC[C@H](NC(=O)[C@@H](N)CC(=O)O)C(=O)N[C@@H](CC(C)C)C(=O)NCC(=O)N[C@@H](C)C(=O)N[C@@H](CCSC)C(=O)N[C@@H](CCCNC(=N)N)C(=O)N[C@@H](CCCCN)C(=O)N2)NC(=O)[C@H](CSSC[C@@H](C(=O)N[C@@H](CCCCN)C(=O)N[C@@H](Cc2ccc(O)cc2)C(=O)N[C@H](C(=O)N[C@@H](Cc2ccccc2)C(N)=O)C(C)C)NC(=O)[C@H](Cc2c[nH]c4ccccc24)NC(=O)[C@H](CCCCNC(N)=O)NC(=O)[C@H](Cc2c[nH]cn2)NC(=O)[C@H]([C@@H](C)O)NC(=O)[C@H](CCCNC(=N)N)NC(=O)[C@H](CO)NC3=O)NC(=O)[C@H](CCCCN)NC(=O)[C@H](CC(=O)O)NC(=O)[C@H](CC(N)=O)NC(=O)[C@H](CC(=O)O)NC(=O)[C@@H]2CCCN2C1=O [compound 749] (H-DCLGAMRKCIPDNDKCCRPNLVCSRTH[hCit]WCKYVF-NH2; disulfide 2-17, 9-23, 16-30)",2300 nM,790 nM,20300 nM
